Assay results: patent US20260048051A1, “TREATMENT OF INFLAMMATORY BOWEL DISEASE” (Atomwise Inc., priority 2024, published 2026)
Where two headings read alike, the source gives them in different places.

Assay: Plasma and tissue distribution in SD rats
Format: in vivo
Conditions: for Tissue/Plasma Ratio (AUCinf) / Kp: SD rat; for Kp / AUC(0-t): rat; for Kp: oral, read-out: Tissue/Plasma Ratio (AUCinf); for AUC(0-t): read-out: AUClast; for AUC0-inf: read-out: AUCINF_obs
Excerpt: The following Example describes the methods and data used to evaluate the tissue distribution of TYK2 inhibitors following the administration of either compound 1 or compound 2.
Thirty (30, 15/sex) SD rats supplied by Beijing Vital River Laboratory Animal Technology Co., Ltd. were used in this study. The animals were confirmed to be healthy before being assigned to the study. The room (s) was controlled and monitored for relative humidity (targeted mean range 40% to 70%) and temperature (targeted mean range 20° C. to 26° C.) with 15 or above air changes/hour. The room was on a 12-hour light/dark cycle except when interruptions were necessitated by study activities. Fresh drinking water (reverses osmosis) was available to all animals, ad libitum. Certified animal diet from certified vendor was available to all animals, ad libitum.
Animals were weighed prior to dose administration to calculate the actual dose volume. The body weights were in the range from 245.39 to 276.33 g for males and 182.29 to 215.69 g for females on the first dosing day. The animals in Groups 1 and 2 received a single oral gavage administration of test compound 1. Cage-side observations for the general health condition and appearance of the animal were performed before and after dosing and at each time point of sample collection. Unusual observations were recorded throughout the duration of the study.
The vehicle was 0.5% methyl cellulose (4000 cps) in water. The formulation was prepared according to the following steps. Group 1: 25.95 mg of compound 1 was weighed into a glass vial. 5000 μL of vehicle was added into the vial and stirred for 30 min at 1700 rpm to get a homogenous opaque suspension. 5000 μL of vehicle was added into the vial and stirred for 10 min at 1700 rpm to get a homogenous opaque suspension. 5000 μL+5000 μL+5000 μL+924 μL of vehicle was added into the vial and stirred for 10 min at 1700 rpm to get a homogenous opaque suspension. Group 2: 81.66 mg of compound 1 was weighed into a glass vial. 5000 μL of vehicle was added into the vial and stirred for 30 min at 1700 rpm to get a homogenous opaque suspension. 5000 μL of vehicle was added into the vial and stirred for 10 min at 1700 rpm to get a homogenous opaque suspension. 10 mL+10 mL+10 mL+20 mL+10 mL+10 mL+1580 μL of vehicle was added into the vial and stirred for 10 min at 1700 rpm to get a homogenous opaque suspension.
Blood (about 0.2 mL) was collected at each time point via jugular vein puncture from each study animal. The actual time for each sample collection was recorded. The acceptable deviations on sampling time were ±1 min for the time points pre-dose through 1 hour post-dose, and +5% of the nominal time for time points after 1 hour post-dose.
All blood samples were transferred into commercial tubes containing K2-EDTA. After blood was collected, the samples were placed on wet ice and processed for plasma within 60 minutes of collection by centrifugation at approximately 4° C., 3200×g for 10 minutes, and then quickly frozen over dry ice and kept at −60° C. or lower until LC-MS/MS analysis.
Following terminal blood sample collection, animals were conducted CO2 euthanasia, the chest and abdominal cavities were opened carefully lengthwise using scissors to expose the internal organs in preparation of tissue perfusion. A needle was used to puncture a small hole into the left ventricle of the heart, and then clamped with a hemostat. […] Fluid (cold 1×PBS) was infused until the liver pales (typically 2-3 minutes). Following perfusion, 14 kinds of tissues (spleen, bone marrow, adipose, brain, heart, kidney, liver, lung, skin, small intestine, large intestine, eye, gonads, and bladder) were collected from each animal, respectively.
Each tissue was weighed and homogenized on wet ice using homogenizing buffer (MeOH/15 mM PBS 1:2) at the ratio of 1:9 (1 g tissue with 9 mL buffer). The tissue homogenate was kept at −60° C. or lower until LC-MS/MS analysis. […]

[1] = female, Sprague-Dawley (SD), large intestine, F SD rat, L. Intestine
[2] = female, Sprague-Dawley (SD), F SD rat, Bone Marrow
[3] = female, Sprague-Dawley (SD), F SD rat, Brain
[4] = female, Sprague-Dawley (SD), F SD rat, Eye
[5] = female, Sprague-Dawley (SD), F SD rat, Heart
[6] = female, Sprague-Dawley (SD), F SD rat, Kidney
[7] = female, Sprague-Dawley, F SD rat, Adipose
[8] = female, Sprague-Dawley, F SD rat, Bladder
[9] = female, Sprague-Dawley, F SD rat, Spleen
[10] = female, small intestine, F SD rat, S. Intestine
[11] = male, Sprague-Dawley (SD), large intestine, M SD rat, L. Intestine
[12] = male, Sprague-Dawley (SD), M SD rat, Brain
[13] = male, Sprague-Dawley (SD), M SD rat, Eye
[14] = male, Sprague-Dawley (SD), M SD rat, Heart
[15] = male, Sprague-Dawley (SD), M SD rat, Kidney
[16] = male, Sprague-Dawley, M SD rat, Adipose
[17] = male, Sprague-Dawley, M SD rat, Bladder
[18] = male, Sprague-Dawley, M SD rat, Skin
[19] = male, Sprague-Dawley, M SD rat, Spleen
[20] = male, Sprague-Dawley, M SD rat, Testis
[21] = male, small intestine, M SD rat, S. Intestine

Structure (SMILES): C[C@@H](c1ccc(Nc2cc(Nc3ncc(F)cc3S(C)(=O)=O)ncn2)nc1)N1CC2(COC2)C1 [Compound 2, (S)—N^4-(5-(1-(2-oxa-6-azaspiro[3.3]heptan-6-yl)ethyl)pyridin-2-yl)-N^6-(5-fluoro-3-(methylsulfonyl)pyridin-2-yl)pyrimidine-4,6-diamine]
- HL_Lambda_z (F SD rat, Adipose): 2.78 h
- HL_Lambda_z (F SD rat, Bladder): 2.37 h
- HL_Lambda_z (F SD rat, Bone Marrow): 2.26 h
- HL_Lambda_z (F SD rat, Eye): 6.23 h
- HL_Lambda_z (F SD rat, Kidney): 2.34 h
- HL_Lambda_z (F SD rat, L. Intestine): 4.97 h
- HL_Lambda_z (F SD rat, Liver): 2.31 h
- HL_Lambda_z (F SD rat, Lung): 2.26 h
- HL_Lambda_z (F SD rat, Plasma): 3.20 h
- HL_Lambda_z (F SD rat, S. Intestine): 2.06 h
- HL_Lambda_z (F SD rat, Skin): 5.71 h
- HL_Lambda_z (F SD rat, Spleen): 2.29 h
- HL_Lambda_z (M SD rat, Bladder): 2.13 h
- HL_Lambda_z (M SD rat, Kidney): 3.28 h
- HL_Lambda_z (M SD rat, Plasma): 2.21 h
- HL_Lambda_z (M SD rat, S. Intestine): 2.05 h
- HL_Lambda_z (M SD rat, Skin): 2.43 h
- HL_Lambda_z (M SD rat, Spleen): 2.24 h
- Tissue/Plasma Ratio (AUCinf) (Kidney): 13
- Tissue/Plasma Ratio (AUCinf) (Large Intestine): 23
- Kp (Sprague-Dawley (SD), bone marrow / plasma, Bone Marrow): 9.6
- Kp (Sprague-Dawley, adipose, Adipose): 4.5
- Kp (Sprague-Dawley, bladder, Bladder): 8.7
- Kp (Sprague-Dawley, eye, Eye): 1.2
- Kp (Sprague-Dawley, kidney, Kidney): ~13
- Kp (Sprague-Dawley, large intestine, Large Intestine): ~23
- Kp (Sprague-Dawley, liver, Liver): 8.7
- Kp (Sprague-Dawley, lung, Lung): 7.1
- Kp (Sprague-Dawley, skin, Skin): 2.5
- Kp (Sprague-Dawley, small intestine, Small Intestine): 27
- Kp (Sprague-Dawley, spleen, Spleen): 12
- AUC(0-t) (female, SD, bone marrow, F SD rat, Bone Marrow): 38700 ng·h/mL
- AUC(0-t) (female, SD, lung, F SD rat, Lung): 29400 ng·h/mL
- AUC(0-t) (female, SD, ovaries, F SD rat, Ovaries): 4360 ng·h/mL
- AUC(0-t) (female, SD, plasma, F SD rat, Plasma): 4120 ng·h/mL
- AUC(0-t) (female, SD, skin, F SD rat, Skin): 8430 ng·h/mL
- AUC(0-t) (female, SD, small intestine, F SD rat, S. Intestine): 110000 ng·h/mL
- Tmax [1]: 120 min
- AUC(0-t) (female, Sprague-Dawley (SD), eye, F SD rat, Eye): 4880 ng·h/mL
- AUC(0-t) (female, Sprague-Dawley (SD), heart, F SD rat, Heart): 8990 ng·h/mL
- AUC(0-t) (female, Sprague-Dawley (SD), kidney, F SD rat, Kidney): 51800 ng·h/mL
- AUC(0-t) [1]: 95000 ng·h/mL
- Cmax [2]: 3080 ng/mL
- Tmax [2]: 30 min
- AUC0-inf [2]: 38300 ng·h/mL
- Cmax [3]: 104 ng/mL
- Tmax [3]: 30 min
- Cmax [4]: 700 ng/mL
- Tmax [4]: 30 min
- AUC0-inf [4]: 4910 ng·h/mL
- Cmax [5]: 2500 ng/mL
- Tmax [5]: 30 min
- Cmax [6]: 9870 ng/mL
- Tmax [6]: 30 min
- AUC0-inf [6]: 51800 ng·h/mL
- AUC(0-t) (female, Sprague-Dawley, adipose, F SD rat, Adipose): 18700 ng·h/mL
- AUC(0-t) (female, Sprague-Dawley, bladder, F SD rat, Bladder): 18600 ng·h/mL
- AUC(0-t) (female, Sprague-Dawley, spleen, F SD rat, Spleen): 43400 ng·h/mL
- Cmax [7]: 4310 ng/mL
- Tmax [7]: 30 min
- Cmax [8]: 2650 ng/mL
- Tmax [8]: 30 min
- AUC0-inf [8]: 18600 ng·h/mL
- Cmax [9]: 12500 ng/mL
- Tmax [9]: 30 min
- Cmax [10]: 24800 ng/mL
- Tmax [10]: 30 min
- AUC0-inf [10]: 130000 ng·h/mL
- Tmax (female, F SD rat, Liver): 30 min
- AUC0-inf (female, F SD rat, Liver): 35900 ng·h/mL
- Cmax (female, F SD rat, Lung): 3070 ng/mL
- Tmax (female, F SD rat, Lung): 30 min
- AUC0-inf (female, F SD rat, Lung): 29500 ng·h/mL
- Cmax (female, F SD rat, Ovaries): 1940 ng/mL
- Tmax (female, F SD rat, Ovaries): 30 min
- Cmax (female, F SD rat, Plasma): 625 ng/mL
- Tmax (female, F SD rat, Plasma): 480 min
- AUC0-inf (female, F SD rat, Plasma): 4140 ng·h/mL
- Cmax (female, F SD rat, Skin): 1180 ng/mL
- Tmax (female, F SD rat, Skin): 30 min
- AUC0-inf (female, F SD rat, Skin): 8450 ng·h/mL
- AUC(0-t) (male, SD, liver, M SD rat, Liver): 14700 ng·h/mL
- AUC(0-t) (male, SD, lung, M SD rat, Lung): 18200 ng·h/mL
- AUC(0-t) (male, SD, skin, M SD rat, Skin): 7820 ng·h/mL
- Cmax [11]: 7320 ng/mL
- Tmax [11]: 480 min
- AUC(0-t) (male, Sprague-Dawley (SD), bone marrow, M SD rat, Bone Marrow): 19600 ng·h/mL
- AUC(0-t) (male, Sprague-Dawley (SD), brain, M SD rat, Brain): 273 ng·h/mL
- AUC(0-t) (male, Sprague-Dawley (SD), heart, M SD rat, Heart): 2880 ng·h/mL
- AUC(0-t) (male, Sprague-Dawley (SD), kidney, M SD rat, Kidney): 32600 ng·h/mL
- Tmax (male, Sprague-Dawley (SD), M SD rat, Bone Marrow): 30 min
- Cmax [12]: 68.9 ng/mL
- Tmax [12]: 30 min
- Cmax [13]: 535 ng/mL
- Tmax [13]: 156 min
- Cmax [14]: 2520 ng/mL
- Tmax [14]: 30 min
- Cmax [15]: 9620 ng/mL
- Tmax [15]: 30 min
- AUC0-inf [15]: 32600 ng·h/mL
- Cmax (male, Sprague-Dawley (SD), M SD rat, Liver): 6340 ng/mL
- AUC(0-t) (male, Sprague-Dawley, adipose, M SD rat, Adipose): 12200 ng·h/mL
- AUC(0-t) (male, Sprague-Dawley, bladder, M SD rat, Bladder): 36200 ng·h/mL
- AUC(0-t) (male, Sprague-Dawley, spleen, M SD rat, Spleen): 25700 ng·h/mL
- AUC(0-t) (male, Sprague-Dawley, testis, M SD rat, Testis): 5090 ng·h/mL
- Cmax [16]: 3900 ng/mL
- Tmax [16]: 30 min
- Cmax [17]: 6820 ng/mL
- Tmax [17]: 33.6 min
- AUC0-inf [17]: 36300 ng·h/mL
- Tmax [18]: 30 min
- AUC0-inf [18]: 8020 ng·h/mL
- Cmax [19]: 6860 ng/mL
- Tmax [19]: 30 min
- Cmax [20]: 318 ng/mL
- Tmax [20]: 480 min
- Cmax [21]: 28900 ng/mL
- Tmax [21]: 30 min
- Cmax (male, M SD rat, Bone Marrow): 4530 ng/mL
- Tmax (male, M SD rat, Liver): 30 min
- Cmax (male, M SD rat, Lung): 4410 ng/mL
- Tmax (male, M SD rat, Lung): 30 min
- Cmax (male, M SD rat, Plasma): 509 ng/mL
- Tmax (male, M SD rat, Plasma): 180 min
- AUC0-inf (male, M SD rat, Plasma): 2680 ng·h/mL
- Cmax (male, M SD rat, Skin): 1460 ng/mL
